Structures are written as SMILES.

Drawing on ChEMBL document CHEMBL4602674, “19-nor-, 20-nor-, and tetranor-Halimane-Type Furanoditerpenoids from Croton crassifolius” (J Nat Prod, 2020), this text covers Activity and IC50 for 32 compounds.

Data set [1] has as its system RAW264.7. Description: Cytotoxicity against mouse RAW264.7 cells at 50 uM after 48 hrs by MTT assay. Format: cell-based. The conditions noted are these: raw264.7, 48 h.
Data set [2] concerns RAW264.7. Description: Inhibition of LPS-induced NO production in mouse RAW264.7 cells preincubated for 30 mins followed by LPS stimulation and measured after 24 hrs by Griess assay. Format: functional, cell-based. On the technique in general: Nitrite, measured by Griess reagent, commonly stands in for NO production.

By IC50 is commonly meant the point on the concentration scale where inhibition reaches its midpoint. A high value points to weaker potency in that assay. Take `COC(=O)C1(C(=O)OC)CCCC2=C1[C@@H](OC(C)=O)C[C@@H](C)[C@]21C[C@@H](c2ccoc2)OC1=O`: in the data set with RAW264.7 [1], the Activity result is “Non-Toxic”. In the data set with RAW264.7 [2], the half-inhibitory concentration (IC50) is over 50 µM. Regarding `C[C@@H]1CCC2=C(C[C@H]3C[C@]2(C)C(=O)O3)[C@@]1(C)CC(=O)c1ccoc1`, in the data set on RAW264.7 [1], the Activity entry is recorded as “Non-Toxic”. For the same compound, the half-maximal inhibitory concentration (IC50) with RAW264.7 [2] was over 50 µM. In the data set with RAW264.7 [2], `O=c1c(O)c(-c2ccc(O)c(O)c2)oc2cc(O)cc(O)c12` [QUERCETIN] came in with a concentration for half-maximal inhibition (IC50) of 15.1 µM. This lies in the double-digit micromolar range. For `COC(=O)[C@@]1(CO)CCCC2=C1[C@@H](OC(C)=O)C[C@@H](C)[C@]21C[C@@H](c2ccoc2)OC1=O`, the Activity entry in the data set on RAW264.7 [1] is “Non-Toxic”. This compound also gave an IC50 in the data set on RAW264.7 [2] of over 50 µM. Regarding `CO[C@@H]1C[C@@H](C)[C@](C)(CC(=O)c2ccoc2)C2=C1[C@]1(C)C[C@H](C2)OC1=O`, the Activity entry with RAW264.7 [1] is reported as “Non-Toxic”. The IC50 in the data set with RAW264.7 [2] is over 50 µM. For the compound `COC(=O)[C@@]1(C)CC(=O)C=C2[C@@](C)(CC(=O)c3ccoc3)[C@H](C)CC[C@]21O`, the Activity entry in the data set on RAW264.7 [1] is “Non-Toxic”. The compound also came in with an IC50 in the data set with RAW264.7 [2] of over 50 µM. As for `COC(=O)[C@@]1(C)C2=C(CC[C@H]1OC(C)=O)[C@@]1(C[C@@H](c3ccoc3)OC1=O)[C@H](C)CC2` [CRASSIFOLIN F], in the data set on RAW264.7 [1], the Activity entry is “Non-Toxic”. In the data set on RAW264.7 [2], this compound gave an IC50 of over 50 µM. `C[C@@H]1C[C@@H]2OC(=O)C3=C2[C@](O)(CCC3)[C@@]12C[C@@H](c1ccoc1)OC2=O`: the Activity result in the data set with RAW264.7 [1] is reported as “Non-Toxic”. The same compound gave an IC50 in the data set with RAW264.7 [2] of over 50 µM. The like results for `CO[C@@]12C[C@@H](C)[C@]3(C[C@@H](c4ccoc4)OC3=O)[C@@H]3CCCC(=C31)C(=O)O2` were, in that order, “Non-Toxic” and over 50 µM. With `C[C@@H]1C[C@@H]2OC(=O)C3=C2[C@H](CCC3)[C@@]12C[C@@H](c1ccoc1)OC2=O` [TEUCVIN], in the data set on RAW264.7 [1], the Activity entry is “Non-Toxic”. Further, in the data set with RAW264.7 [2], the half-inhibitory concentration (IC50) was over 50 µM. Take `COC(=O)[C@]1(C)CCCC2=C1CC[C@@H](C)[C@]2(C)CCC1=CC(=O)OC1`: in the data set with RAW264.7 [1], the Activity entry is given as “Non-Toxic”. Besides, the IC50 in the data set with RAW264.7 [2] was over 50 µM.

As for `COC(=O)[C@@]1(C)CCCC2=C1[C@@H](OC(C)=O)C[C@@H](C)[C@]21C[C@@H](c2ccoc2)OC1=O`, the Activity result in the data set with RAW264.7 [1] is recorded as “Non-Toxic”. This compound also returned an IC50 in the data set on RAW264.7 [2] of over 50 µM. The like results for `Cc1cc(O)cc2c1CC[C@@H](C)[C@]2(C)CC(=O)c1ccoc1` were, in that order, “Non-Toxic” and 23.7 µM. `CC1=CC(=O)C2=C3[C@@]1(O)CC[C@@H](C)[C@]3(C)C=C2c1ccoc1`: the Activity result with RAW264.7 [1] was “Non-Toxic”. The same compound had an IC50 in the data set on RAW264.7 [2] of 17.2 µM. With `C[C@@H]1CCC2=C(C[C@@H]3C[C@]2(C)C(=O)O3)[C@@]12C=C(c1ccoc1)OC2=O`, the Activity result with RAW264.7 [1] was “Non-Toxic”. In the data set with RAW264.7 [2], this compound had a half-inhibitory concentration (IC50) of over 50 µM. With `COC(=O)[C@@]1(C)C2=C(CC[C@H]1O)[C@@]1(C[C@@H](c3ccoc3)OC1=O)[C@H](C)CC2`, the Activity result in the data set on RAW264.7 [1] is “Non-Toxic”. Besides, the IC50 in the data set with RAW264.7 [2] was over 50 µM. For the compound `COC(=O)C1(C(=O)OC)CCCC2=C1[C@@H]1C[C@@H](C)[C@@]2(CC(=O)c2ccoc2)C(=O)O1`, in the data set on RAW264.7 [1], the Activity entry is reported as “Non-Toxic”. The compound further returned a half-maximal inhibitory concentration (IC50) with RAW264.7 [2] of over 50 µM.

As to `COC(=O)[C@@]1(CO)CCCC2=C1[C@@H](O)C[C@@H](C)[C@]21C[C@@H](c2ccoc2)OC1=O`, the Activity entry with RAW264.7 [1] is on record as “Non-Toxic”. Moreover, the IC50 in the data set with RAW264.7 [2] was over 50 µM. For `C[C@@H]1C[C@H]2OC(=O)C3=C2[C@@H](CCC3)[C@@]12C[C@@H](c1ccoc1)OC2=O`, the Activity entry with RAW264.7 [1] is given as “Non-Toxic”. In the data set on RAW264.7 [2], the IC50 was over 50 µM. As to `COC(=O)[C@@]1(C)C2=C(CC[C@H]1OC(C)=O)[C@@]1(C[C@@H](c3ccoc3)OC1=O)[C@H](C)CC2=O`, in the data set with RAW264.7 [1], the Activity entry was “Non-Toxic”. In the data set with RAW264.7 [2], the 50% inhibitory concentration (IC50) was over 50 µM. For `COC(=O)[C@]1(C)CCCC2=C1C(=O)C[C@@H](C)[C@]2(C)CCC1=CC(=O)OC1`, the Activity result in the data set on RAW264.7 [1] is on record as “Non-Toxic”. This compound also came in with an IC50 in the data set on RAW264.7 [2] of over 50 µM. Regarding `COC(=O)C1(C(=O)OC)C2=C(CC[C@@H]1OC(C)=O)[C@@]1(C[C@@H](c3ccoc3)OC1=O)[C@H](C)CC2=O`, the Activity entry with RAW264.7 [1] is “Non-Toxic”. In the data set on RAW264.7 [2], this compound gave a half-maximal inhibitory concentration (IC50) of over 50 µM.

Take `COC(=O)[C@]1(C)C2=C(CC[C@H]1O)[C@@]1(C[C@@H](c3ccoc3)OC1=O)[C@H](C)C[C@@H]2OC(C)=O`: in the data set on RAW264.7 [1], the Activity entry is reported as “Non-Toxic”. Besides, in the data set on RAW264.7 [2], the IC50 is over 50 µM. As for `C[C@@H]1C[C@@H](O)C2=C(C[C@@H]3C[C@]2(C)C(=O)O3)[C@@]12C[C@@H](c1ccoc1)OC2=O`, the Activity result with RAW264.7 [1] is recorded as “Non-Toxic”. The same compound displayed an IC50 in the data set on RAW264.7 [2] of over 50 µM. The like results for `C[C@@H]1C[C@@H]2OC(=O)[C@]3(O)CCCC(=C23)[C@@]12C[C@@H](c1ccoc1)OC2=O` were, in that order, “Non-Toxic” and over 50 µM.

As to `COC(=O)[C@@]1(COC(C)=O)CCCC2=C1CC[C@@H](C)[C@]21C[C@@H](c2ccoc2)OC1=O`, the Activity result in the data set with RAW264.7 [1] was “Non-Toxic”. In addition, the IC50 with RAW264.7 [2] was over 50 µM. As for `C[C@@H]1C[C@H]2OC(=O)[C@@]3(CO)CCCC(=C23)[C@@]12C[C@@H](c1ccoc1)OC2=O`, in the data set with RAW264.7 [1], the Activity result is listed as “Non-Toxic”. The compound also yielded a half-inhibitory concentration (IC50) in the data set with RAW264.7 [2] of over 50 µM. On to `COC(=O)[C@@]1(C)CC(=O)C2=C3[C@@](C)(CC2=O)[C@H](C)CC[C@]31O`, for which the Activity result with RAW264.7 [1] is given as “Non-Toxic”. The IC50 in the data set with RAW264.7 [2] was over 50 µM. Turning to `COC(=O)[C@@]1(CO)CCCC2=C1C(=O)C[C@@H](C)[C@]21C[C@@H](c2ccoc2)OC1=O`, the Activity result with RAW264.7 [1] is listed as “Non-Toxic”. The compound further showed a 50% inhibitory concentration (IC50) in the data set on RAW264.7 [2] of over 50 µM. As to `COC(=O)C1(C(=O)OC)CCCC2=C(CC(=O)c3ccoc3)[C@H](C)CC=C21`, the Activity result in the data set on RAW264.7 [1] is recorded as “Non-Toxic”. The half-maximal inhibitory concentration (IC50) in the data set with RAW264.7 [2] is over 50 µM. On to `COC(=O)[C@@]1(C)CCCC2=C1[C@@H](O)C[C@@H](C)[C@]21C[C@@H](c2ccoc2)OC1=O`, for which the Activity entry in the data set on RAW264.7 [1] was “Non-Toxic”. The compound also showed an IC50 with RAW264.7 [2] of over 50 µM. `COC(=O)[C@@]1(COC(C)=O)CCCC2=C1[C@@H](O)C[C@@H](C)[C@]21C[C@@H](c2ccoc2)OC1=O`: the Activity entry in the data set on RAW264.7 [1] is recorded as “Non-Toxic”. In the data set on RAW264.7 [2], this compound returned a 50% inhibitory concentration (IC50) of over 50 µM.
